Assay results published in US10792282B2, “Protein kinase C inhibitors and uses thereof” (Rigel Pharmaceuticals, Inc., priority 2013, dated 2020).
Read-outs that look alike come from different tables or passages of the source.

Columns and labels:
[1] = tested on: PKC mediated IL-2 production; assay: IL-2 ELISA, human primary T cell, anti CD3+CD28+ (whole cell functional assay); type: cell-based; settings: Homo sapiens, T-cell
Procedure, shortened: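 Anti-CD3/CD28-expanded human primary T cells (100,000/well), pre-incubated 1 h at 37° C with compound, then stimulated on plates coated with 1 μg/ml αCD3 and 5 μg/ml αCD28. Counter assay used 0.5 ng/ml PMA plus 0.1 μM ionomycin (final). Supernatant IL-2 measured by ELISA after 24 h.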

[2] = tested on: PLP induced experimental autoimmune encephalomyelitis (EAE); assay: PLP induced experimental autoimmune encephalomyelitis (EAE) model in SJL mice; type: in vivo; settings: Mus musculus, both pretreatment and treatment dosing
Excerpt: EAE is a useful model for multiple sclerosis (MS), an autoimmune disease of the CNS that is caused by immune-cell infiltration of the CNS white matter. Inflammation and subsequent destruction of myelin cause progressive paralysis. Like the human disease, EAE is associated with peripheral activation of T cells autoreactive with myelin proteins, such as myelin basic protein (MBP), proteolipid protein (PLP), or myelin oligodendrocyte protein (MOG). Activated neuroantigen-specific T cells pass the blood-brain barrier, leading to focal mononuclear cell infiltration and demyelination. EAE can be induced in susceptible mouse strains by immunization with myelin-specific proteins in combination with adjuvant. In the SJL mouse model used in these studies, hind limb and tail paralysis is apparent by Day 10 after immunization, the peak of disease severity can be observed between Days 10 and 14, and a cycle of partial spontaneous remission followed by relapse can be observed up to Day 35.
In the SJL murine model of EAE, each mouse is sensitized with PLP/CFA. (150 μg PLP139-151 with 200 μg CFA in 0.05 ml of homogenate on four sites of hind flank for a total of 0.2 ml emulsion is used to induce EAE). […] In both protocols, clinical scores are monitored daily, and body weights are measured twice weekly. […]

Cn1nnn(-c2cc(Nc3ncc(F)c(N[C@@H]4C[C@@H]5CCCN5C(C)(C)C4)n3)c(F)cc2C2CC2)c1=O [Compound 17, 1-(5-(4-((7R,8aS)-octahydro-5,5-dimethylindolizin-7ylamino)-5-fluoropyrimidin-2-yl-amino)-2-cyclopropyl-4-fluorophenyl)-4-methyl-1H-tetrazol-5(4H)-one]
EC50 ([1]; 24 h, IL-2 production, human primary T cells stimulated with αCD3 and αCD28, 24 hours, IL-2 by ELISA, read-out: EC50): < 0.1 µM | EC50 ([1]; human primary T cells stimulated with αCD3 and αCD28, IL-2 by ELISA, read-out: EC50 (blocked IL-2 production)): < 10 µM | ED50 [2]: 30 mg/kg
